The text below walks through data of patent US20250040554A1, “NEW USES OF PHENMEDIPHAM AND HERBICIDAL COMBINATIONS COMPRISING PHENMEDIPHAM” (BAYER AKTIENGESELLSCHAFT, priority 2021, published 2025).

Common to all, as to assay type: in vivo
Details in all cases: 20 g/ha, 15 DAA

The test system of assay [1] is AMARE=Amaranthus retroflexus. Put plainly: Weed control field trial AMARE. The text has this: (§1) The respective (combinations of) materials were applied to weed plants in the greenhouse or in the field at the respective growth stage indicated hereinafter for the different weed species mentioned below. The respective (combinations of) active ingredients were also applied to corn, cotton and soybean crop plants, and the selectivity (damage) in these crop plants rated (assessed).
(§2) Visual scoring of the damage to the trial plants took place after the time mentioned in the respective Table—indicated in number of Days After Application (DAA). Damage and development of all above-ground parts of the respective plants was recorded. Visual rating was done on a percentage scale in relation to the untreated control (100%=all plants dead; 50%=green plant biomass reduced by 50%, and 0%=no discernible difference=like control plot).
(§3) wherein • A, B=respective value in percent of active ingredient A at a dose rate of a g/ha, ingredient B at a dose rate of b g/ha • E^C=Expected value according to Colby (S. R. Colby; Weeds 15 (1967), 20-22) in % at a dose rate of a+b, each in g/ha • Δ=Difference (in %) between measured value E and expected value E^C (%) (measured value minus expected value)
(§4) After the harmful plants had emerged, they were treated, at the respective growth stage indicated, with the respective materials as indicated at a water application rate of 187 L/ha.
(§5) After the treatment (15 days after the treatment), the herbicidal activity of respective material was scored visually at the same time by comparing the differently treated plots with the untreated control plots. The score figures of the different plots were averaged.
(§6) The dose rates of herbicidal ingredients used in each case are indicated for the respective active ingredient and refer to the amount of active ingredient per hectare (g/ha).
(§7) The weed control activity of different (combinations of) herbicidal active ingredients was investigated in field trials for the following weed species: • AMARE=Amaranthus retroflexus • KCHSC=Kochia scoparia • PANRA=Panicum ramosum
(§8) The growth stage of AMARE was BBCH 19, the growth stage of KCHSC was BBCH 19 and the growth stage of PANRA was BBCH 22 at the time of application of the respective material.
(§9) Phenmedipham and the respective aroylcyclohexanedione herbicide were applied at varying application rates (Dose Rate) to the different species of weed plants. The results are shown in Tables 4a to 4d as the % control when assessed 15 days after application (DAA), respectively.
(§10) In all the trials of Tables 4a to 4d Mero® (rapeseed oil methyl ester) was added to the respective spray mixture in an amount corresponding to 1 L/ha for PMP, 1 L/ha for the respective aroylcyclohexanedione herbicide, and 2 L/ha for mixtures of PMP+the respective aroylcyclohexanedione herbicide.

The next assay relates to KCHSC=Kochia scoparia. The assay can be described thus: Weed control field trial KCHSC.
Source text: as §1, §2, §3, §4, §5, §6, §7, §8, §9, §10

The test system of another assay is PANRA=Panicum ramosum. Put plainly: Weed control field trial PANRA.
Source text: as §1, §2, §3, §4, §5, §6, §7, §8, §9, §10

For `CS(=O)(=O)c1ccc(C(=O)C2C(=O)CCCC2=O)c(Cl)c1COCC(F)(F)F` [TBT, 2-{2-chloro-4-(methylsulfonyl)-3-[(2,2,2-trifluoroethoxy)methyl]benzoyl}cyclohexane-1,3-dione], the “% control AMARE” value in assay [1] worked out at 35%. In addition, the “% control KCHSC” value with KCHSC=Kochia scoparia came to 20%. For the same molecule, the “% control PANRA” value in the assay with PANRA=Panicum ramosum is 20%.

On to `CS(=O)(=O)c1ccc(C(=O)C2C(=O)CCCC2=O)c(Cl)c1` [SCT, 2-[2-chloro-4-(methylsulfonyl)benzoyl]cyclohexane-1,3-dione], for which the “% control AMARE” value in assay [1] came out at 5%. For the same molecule, the “% control KCHSC” value in the assay with KCHSC=Kochia scoparia is on record as 5%.
